Data taken from patent publication US9345691B2, “Beta-lactam compounds for enhancing T cell-mediated immune responses” (STEM CELL MEDICINE LTD., priority 2011, dated 2016).

Key:
[1] = system: encephalitogenic BP10 T-cell line; assay: Adoptive EAE by BP10 line stimulated in vitro with test substance; format: in vivo, rat
From the text: The ability of a compound to enhance T cell activity may be determined, for example, using an in vivo assay testing the effect of a given compound on the severity of adoptive (passive) EAE, namely, EAE which is induced by the injection of activated encephalitogenic T cell line to the model animal. In order to test a compound, the encephalitogenic T cells are activated in the presence of the compound prior to injection. An exemplary procedure is described in the Examples section hereinbelow.
Antigen-specific T-cell lines were established from lymph node cells that had been stimulated with myelin basic protein (MBP; 10 μg/ml) for 3 days in stimulation medium as described below. Following stimulation, the T-cell blasts were isolated on Lympho-prep (Nycomed Pharma, Oslo, Norway) and seeded in propagation medium. Propagation medium was identical to stimulation medium without autologous serum, but supplemented with fetal calf serum 10% and T-cell growth factors from the supernatant of Con A stimulated spleen cells 10% (Mor et al. (1990) J Clin Invest, 85, 1594-1598). Animals were injected intra-peritoneally with 10^7 MBP-stimulated T cells, following 6-8 cycles of in vitro stimulations. It is known that MBP-reactive lines undergo a reduction in pathogenicity after 6 or more in vitro stimulations. In some experiments the BP10 line was stimulated with phorbol myristate acetate (PMA; 50 ng/ml) and ionomycin (500 ng/ml) for 3 days in stimulation medium, without antigen-presenting cells.
Active EAE was induced by subcutaneous injection of 25 μg guinea-pig MBP (GpMBP) in complete Freund's adjuvant (CFA). CFA was prepared by adding 4 mg/ml Mycobacterium tuberculosis H37Ra (Difco, Mich.) to incomplete Freund's adjuvant (IFA). Adoptive EAE was transferred by intra-peritoneal injection of guinea-pig MBP-activated cells of the BP10 line as described in Mor et al. (1993) J Clin Invest, 92, 2199-2206. […] Clinical scoring was: +1, paralysis of tail; +1.5, paresis of posterior paws and ataxia; +2, paraplegia; +3, paralysis extending to thoracic spine; +4, a moribund state.
Treatment with cefuroxime in vivo could affect many different host agents involved in EAE or AA as well as influencing the rats' bacterial flora. To test whether the antibiotic might directly modify the behavior of effector T cells, an encephalitogenic T-cell line was stimulated in the presence or absence of cefuroxime in vitro. The weakly encephalitogenic BP10 line was used, and was stimulated for 3 days with MBP in the presence or absence of cefuroxime (50 μg/ml). The activated T cells were then washed to remove the antibiotic, the T cells were injected intra-peritoneally into naïve recipient rats (10^7 per rat), and EAE was scored. The BP10 line at later stimulations was used, when its pathogenic potential is reduced, allowing to detect both suppression and enhancement of disease. […] To rule out antigen presenting cells (APC) as the target of the beta-lactam antibiotic, the encephalitogenic BP10 line was stimulated without APC using PMA (50 ng/ml) and Ionomycin (500 ng/ml) in the presence or absence of cefuroxime.

[2] = system: RMA cells (T cell lymphoma of mouse origin); assay: RMA mouse tumor model; format: in vivo
Method: In the RMA mouse tumor model (T cell lymphoma of mouse origin), T cells are known to participate in tumor rejection, and thus augmenting T cell effects might enhance the animal's ability to reject the tumor implant. RMA cells were injected to C57BL/6J Ola Hsd mice (10^5 cells per mouse) (Chen et al. (1994) J Exp Med, 179:523-532). […] Tumor size was measured and recorded.
An additional experiment was carried out in the same experimental system, comparing 6-APA to clavulanic acid.

[3] = Dissolution in aqueous solution; format: physicochemical
[4] = system: NOD mice; assay: Autoimmune diabetes in NOD mice; format: in vivo, mouse; conditions: NOD mice at 5.7 months; SC weekly; ampicillin 1300 μg, ceftriaxone 675 μg per mouse
Method: NOD mice spontaneously develop diabetes mellitus similar to type I diabetes in humans. […] The mice were followed for the development of diabetes, marked by blood sugar above 300 mg/dl on 2 measurements.

[5] = system: experimental autoimmune encephalomyelitis (EAE) in rats; assay: Actively induced EAE; format: in vivo, rat; conditions: oral in drinking water from day 7 postinduction, daily dose 50 mg/kg, versus two control groups
[6] = biological target: T1, 67 kDa band in human T-cell lysates (Homo sapiens, UniProt P02768); assay: Radioactive penicillin binding assay; conditions: tritium-labeled, 10 and 20 μCi, 3 days with PMA and Ionomycin; CD4 and CD8 T cell lysates
T1 construct: endogenous in cells; host or cells: primary human CD4 or CD8 T cells from peripheral blood of healthy donors
T1 sequence (P02768 25-609): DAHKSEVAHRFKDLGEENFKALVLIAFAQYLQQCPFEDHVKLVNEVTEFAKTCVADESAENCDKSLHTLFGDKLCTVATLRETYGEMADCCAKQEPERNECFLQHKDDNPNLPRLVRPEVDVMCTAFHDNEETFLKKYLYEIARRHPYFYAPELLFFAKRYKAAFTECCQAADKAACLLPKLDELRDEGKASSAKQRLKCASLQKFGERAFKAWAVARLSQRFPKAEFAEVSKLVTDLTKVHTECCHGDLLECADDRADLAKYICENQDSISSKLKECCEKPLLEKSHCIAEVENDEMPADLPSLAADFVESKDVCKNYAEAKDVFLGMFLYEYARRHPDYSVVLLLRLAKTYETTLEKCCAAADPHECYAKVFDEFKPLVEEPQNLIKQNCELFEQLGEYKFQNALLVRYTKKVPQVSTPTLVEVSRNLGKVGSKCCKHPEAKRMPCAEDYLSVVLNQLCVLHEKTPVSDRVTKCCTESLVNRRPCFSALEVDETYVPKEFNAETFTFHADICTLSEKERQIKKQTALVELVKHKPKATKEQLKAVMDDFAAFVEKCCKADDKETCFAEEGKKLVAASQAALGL
From the text: Tritium labeled benzylpenicillin was obtained from Amersham (Buckinghamshire, UK; 250 μCi, 1 mCi/ml). Human CD4 or CD8 T cells were stimulated in 24 well plates, 5×10^6 cells per ml, with PMA and Ionomycin for 72 hr in the presence of 10 or 20 μCi of labeled penicillin. Following stimulation, the cells were collected, lysed and separated by SDS PAGE. The gels were fixed, treated with 1M sodium salicylate, and dried. The dried gels were exposed to x-ray film (BioMax MS film) for 14 days, with intensifying screen (BioMax TranScreen, Eastman Kodak Co., New Haven Conn., USA), and were developed.
To test whether beta-lactam antibiotics might affect T-cell behavior likewise by covalently binding a key T-cell protein, purified CD4 or CD8 human T cells were incubated with 10 and 20 μCi of tritium-labeled lactam benzylpenicillin (Amersham, Buckinghamshire, UK) for 3 days during stimulation with PMA and Ionomycin. The stimulated T cells were collected, washed, lysed and their proteins were subjected to SDS-PAGE separation. Dried gels were exposed in intensifying screens to Xray film for 2 weeks at −80° C. […] The intensity of the band was stronger at the 20 μCi concentration of penicillin.

[7] = system: human CD3 T cells; assay: Pen 9 western blot of antibiotic-treated human T cells; format: cell-based; conditions: human T cells activated by mitogen in presence of the antibiotic
[8] = biological target: T2, albumin (Rattus norvegicus, UniProt P02770); assay: Pen 9 detection of penicillin-albumin in vivo; conditions: Lewis rats, 50 mg/rat intraperitoneally, 2 hours later
T2 construct: from tissue; host or cells: various tissues and serum of Lewis rats
Method: Rat tissues were ground with a tissue grinder in lysis buffer. The homogenate was centrifuged 14000 g for 15 min in 4° C. and the supernatant was used for western blotting. The protein concentration was determined using the Bio-Rad Dc protein assay (Bio-Rad laboratories, Hercules, Calif.). Following electrophoresis in SDS gel in a mini-gel apparatus (Bio-Rad), the gels were electro-transferred to nitrocellulose membranes (Schleicher and schuell, Dassel, Germany). The nitrocellulose membranes were washed with distilled water for 5 min, and then blocked for 60 min. using a blocking solution composed of 2% bovine serum albumin (Fraction V, Sigma, St. Louis Mo.), 2.5% milk powder (Bio-Rad), Tris (Sigma) pH 7.5 10 mM, NaCl 150 mM and 0.02% thimerosal (Sigma). After 3×10 min. washes in PBS/Tween 20 (PBS/T; 0.02%, Sigma), primary antibodies ( 1/1000) were incubated with the membranes in PBS/Tween for 60 min. Following another series of washes in PBS/T (3×10 min), the membranes were incubated with a secondary antibody (Peroxidase conjugated anti rabbit or anti mouse, IgG Jackson ImmunoResearch, West Grove, Calif.) at a 1/2500 dilution in 2% milk in PBS solution for 60 min. After another 3×10 min washes, the membranes were incubated with the ECL reagent (for 60 seconds) and exposed to X-ray film. […]

[9] = system: albumin; assay: Pen 9 western blot of cell lines treated with penicillin; format: cell-based; conditions: cell lines raised in vitro
[10] = free penicillin; cited from earlier work
[11] = BP10 line, same doses as penicillin
[12] = 17 days after tumor injection, versus PBS treated and non-injected mice

CC1(C)S[C@@H]2[C@H](N)C(=O)N2[C@H]1C(=O)O [6-APA, 6-aminopenicillanic acid]
severity of adoptive EAE [1, 11]: EAE enhancing ability, similar to penicillin
tumor size [2, 12]: smaller tumors
tumor size ([2]; C57BL/6J mice, SC 2 μg/mouse 3 times per week, last two measurements, versus control mice): significantly smaller
solubility in aqueous solution [3]: difficult to dissolve in aqueous solution

CO/N=C(\C(=O)N[C@@H]1C(=O)N2C(C(=O)O)=C(CSc3nc(=O)c(=O)[nH]n3C)CS[C@H]12)c1csc(N)n1 [ceftriaxone]
severity of adoptive EAE ([1]; BP10 line stimulated 3 days with MBP in presence of 50 μg/ml, 10^7 cells IP per rat): enhanced EAE severity
incidence of diabetes [4]: 60%

CO/N=C(\C(=O)N[C@@H]1C(=O)N2C(C(=O)OC(C)OC(C)=O)=C(COC(N)=O)CS[C@H]12)c1ccco1 (stereo partly shown) [cefuroxime axetil]
severity of actively induced EAE [5]: significantly more severe EAE

O=C(O)[C@H]1/C(=C/CO)O[C@@H]2CC(=O)N21 [clavulanic acid]
severity of adoptive EAE (pathogenicity of BP10 line) ([1]; BP10 line stimulated with 25 μg/ml, 5 rats per group): enhanced the pathogenicity of BP10 line
tumor size [2, 12]: smaller tumors

CC1(C)S[C@@H]2[C@H](NC(=O)Cc3ccccc3)C(=O)N2[C@H]1C(=O)O [penicillin, benzylpenicillin]
covalent binding to T-cell protein (radioactive band on SDS-PAGE) [6]: single major penicillin-protein radioactive band was detected at 67 kD
reactivity of Pen 9 antibody with lysates of treated T cells [7]: reacted specifically to a major protein of the penicillin-treated T cells
67 kD band (penicilloylated albumin) in tissue lysates [8]: appears in all tissues examined and is most abundant in serum
penicillin-modified albumin band in cell line lysates [9]: could be detected in mesenchymal stem cells, dendritic cells, Jurkat, MOLT4, FAO and CEM lines
half-life [10]: 42 min

C[C@]1(Cn2ccnn2)[C@H](C(=O)O)N2C(=O)C[C@H]2S1(=O)=O [tazobactam]
severity of adoptive EAE [1, 11]: EAE enhancing ability, similar to penicillin

B1: Penicillin-modified rat albumin: rat albumin modified by penicillin (conjugate, UniProt P02770 25-608, looked up)
Albumin: EAHKSEIAHRFKDLGEQHFKGLVLIAFSQYLQKCPYEEHIKLVQEVTDFAKTCVADENAENCDKSIHTLFGDKLCAIPKLRDNYGELADCCAKQEPERNECFLQHKDDNPNLPPFQRPEAEAMCTSFQENPTSFLGHYLHEVARRHPYFYAPELLYYAEKYNEVLTQCCTESDKAACLTPKLDAVKEKALVAAVRQRMKCSSMQRFGERAFKAWAVARMSQRFPNAEFAEITKLATDVTKINKECCHGDLLECADDRAELAKYMCENQATISSKLQACCDKPVLQKSQCLAEIEHDNIPADLPSIAADFVEDKEVCKNYAEAKDVFLGTFLYEYSRRHPDYSVSLLLRLAKKYEATLEKCCAEGDPPACYGTVLAEFQPLVEEPKNLVKTNCELYEKLGEYGFQNAVLVRYTQKAPQVSTPTLVEAARNLGRVGTKCCTLPEAQRLPCVEDYLSAILNRLCVLHEKTPVSEKVTKCCSGSLVERRPCFSALTVDETYVPKEFKAETFTFHSDICTLPDKEKQIKKQTALAELVKHKPKATEDQLKTVMGDFAQFVDKCCKAADKDNCFATEGPNLVARSKEALA
modifications: penicillin-modified
severity of adoptive EAE (pathogenicity of BP10 line) ([1]; BP10 line stimulated 3 days with 5 mg/ml in stimulation medium): could also enhance the encephalogenicity of the BP10 line
